Earlier results on 4 compounds are cited in patent US20070207107A1, “Silicone based emulsions for topical drug delivery” (priority 2006, published 2007).

For data set [1] the following is noted: result in words.
The conditions of data set [2]: drug dissolved in 98% hexamethyldisiloxane and 2% silicone gum.

In the case of `Cn1c(=O)c2c(ncn2C)n(C)c1=O` [Caffeine], in data set [1], the “skin permeability (classification)” value was “relatively high skin permeability”.

Turning to `Clc1ccc(COC(Cn2ccnc2)c2ccc(Cl)cc2Cl)cc1` (stereo not shown) [econazole nitrate], the “skin penetration from silicone formulation compared with silicone-free emulsion” value in data set [2] is “reduced penetration”.

On to `C[C@]12CCC(=O)C=C1CC[C@@H]1[C@@H]2[C@@H](O)C[C@@]2(C)[C@H]1CC[C@]2(O)C(=O)CO` [hydrocortisone], for which the “skin penetration from silicone formulation compared with silicone-free emulsion” value in data set [2] is “formation of a reservoir of hydrocortisone in the stratum corneum”.

As for `CC(C)Cc1ccc(C(C)C(=O)O)cc1` (stereo not shown) [ibuprofen], the “skin penetration from silicone formulation compared with silicone-free emulsion” value in data set [2] was “increased the penetration”.
